The record followed here is US6762036B2, “Cellular physiology workstations for automated data acquisition and perfusion control” (Trustees of Boston University, priority 1995, dated 2004).

Assay type in all cases: cell-based
Test [1] relates to metabotropic glutamate receptors. Briefly: Inhibition of kainate responses by stimulation of metabotropic glutamate receptors in oocytes injected with rat brain poly A+ mRNA. Conditions: about 500 μM tACPD, about 100 μM kainate, repetitive applications, FIG. 14. The protocol:
Poly A^+ mRNA are extracted from brain tissue and neuronal cell culture using a magnetic separation protocol based on the Dynabeads Oligo (dT)25 kit (Dynal, Olso, Norway). Briefly, the protocol utilized magnetic beads that have an attached poly-T moiety which can bind poly A^+ mRNA for separation. Tissue is homogenized, cells are disrupted, and the lysate is added to an aliquot of Dynabeads. Magnetic separation efficiently yields mRNA that is suitable for direct injection into oocytes. Batches of about 20 to about 30 select oocytes are injected with about 50 to about 100 ng of neuronal poly A^+ mRNA. Alternatively, oocytes may be injected with about […] of RNA prepared from in vitro transcription of cDNA clones. In either case, injection may be performed using a Drummond electronic microinjector. Oocytes are then maintained at about 18° C. to about 19° C. for about 2 to about 4 days to allow protein expression prior to electrophysiological recordings. After incubation, electrophysiological analysis of expressed receptors and ion channels may be performed using a system according to the present invention.

Test [2] has as its target T1, recombinant GluR6 kainate receptors (Homo sapiens, UniProt Q13002).
T1 construct: expressed in transfected cells; host or cells: Xenopus laevis oocytes injected with in vitro transcribed GluR6 cRNA
Briefly: Effects of steroids on recombinant GluR6 kainate receptors in oocytes. Conditions: recombinant GluR6, Vh about −100 mV, FIG. 11.
Method: All measurements were performed under Vh of about −100 mV.
About 3 days to about 5 days after RNA injection, electrophysiological recordings were carried out using an Axoclamp-2A voltage clamp amplifier (Axon Instruments, Inc.). Experiments were performed in two-electrode voltage clamp mode using two intracellular microelectrodes of about 1 to about 3 mega-ohm resistance filled with a solution of about 3M KCl.
Oocytes were usually clamped at a holding potential of about −60 mV and stepped to about −100 mV during agent application.

The test system of test [3] is kainate responses in oocytes injected with rat brain poly A+ mRNA. Briefly: Effect of pregnenolone sulfate on kainate dose-response curve in oocytes injected with rat brain poly A+ mRNA. The settings on record: with and without pregnenolone sulfate, Vh about −100 mV, FIG. 9.
Method: Poly A^+ mRNA are extracted from brain tissue and neuronal cell culture using a magnetic separation protocol based on the Dynabeads Oligo (dT)25 kit (Dynal, Olso, Norway). Briefly, the protocol utilized magnetic beads that have an attached poly-T moiety which can bind poly A^+ mRNA for separation. Tissue is homogenized, cells are disrupted, and the lysate is added to an aliquot of Dynabeads. Magnetic separation efficiently yields mRNA that is suitable for direct injection into oocytes. Batches of about 20 to about 30 select oocytes are injected with about 50 to about 100 ng of neuronal poly A^+ mRNA. Alternatively, oocytes may be injected with about 30 μl to about 80 μl of RNA prepared from in vitro transcription of cDNA clones. In either case, injection may be performed using a Drummond electronic microinjector. Oocytes are then maintained at about 18° C. to about 19° C. for about 2 to about 4 days to allow protein expression prior to electrophysiological recordings. After incubation, electrophysiological analysis of expressed receptors and ion channels may be performed using a system according to the present invention.
About 3 days to about 5 days after RNA injection, electrophysiological recordings were carried out using an Axoclamp-2A voltage clamp amplifier (Axon Instruments, Inc.). […]

T1 sequence (Q13002 32-908): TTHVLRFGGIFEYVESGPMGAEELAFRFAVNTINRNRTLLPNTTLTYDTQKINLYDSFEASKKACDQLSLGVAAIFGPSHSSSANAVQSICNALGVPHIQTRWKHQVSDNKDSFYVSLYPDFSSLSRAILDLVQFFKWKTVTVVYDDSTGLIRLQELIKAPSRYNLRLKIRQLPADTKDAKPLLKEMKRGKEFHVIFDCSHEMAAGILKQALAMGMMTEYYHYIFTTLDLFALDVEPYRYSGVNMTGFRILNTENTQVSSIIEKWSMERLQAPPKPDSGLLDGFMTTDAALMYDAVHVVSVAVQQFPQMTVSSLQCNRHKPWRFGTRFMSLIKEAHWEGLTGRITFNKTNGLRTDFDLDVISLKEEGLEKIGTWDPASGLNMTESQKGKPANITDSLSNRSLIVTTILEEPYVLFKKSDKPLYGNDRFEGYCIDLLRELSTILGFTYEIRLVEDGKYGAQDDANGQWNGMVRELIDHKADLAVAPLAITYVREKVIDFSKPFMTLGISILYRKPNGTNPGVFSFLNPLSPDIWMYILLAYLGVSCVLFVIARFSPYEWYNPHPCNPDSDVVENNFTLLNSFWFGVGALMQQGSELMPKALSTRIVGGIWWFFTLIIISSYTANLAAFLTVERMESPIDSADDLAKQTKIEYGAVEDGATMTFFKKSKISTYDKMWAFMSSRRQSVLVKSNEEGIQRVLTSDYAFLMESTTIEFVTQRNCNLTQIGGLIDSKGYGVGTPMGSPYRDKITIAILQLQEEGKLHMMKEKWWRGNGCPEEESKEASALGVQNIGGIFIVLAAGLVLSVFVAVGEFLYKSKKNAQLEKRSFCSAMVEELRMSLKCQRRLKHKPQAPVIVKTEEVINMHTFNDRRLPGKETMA

`N[C@]1(C(=O)O)CC[C@H](C(=O)O)C1` [tACPD]: in test [1], the “Effect on responses to kainate” value is recorded as “can inhibit responses to kainate”.

On to pregnenolone sulfate, for which the “Effect on maximal response to kainate” value in test [2] was “decrease the maximal response to kainate”. Further, the “Effect on Emax of kainate dose-response curve” value in test [3] was “decrease in Emax”.
